Data from publication PMC6539495, “Anti-Cancer Activity of Novel Dihydrotestosterone-Derived Ring A-Condensed Pyrazoles on Androgen Non-Responsive Prostate Cancer Cell Lines” (International Journal of Molecular Sciences, 2019).

What was measured:
MRC-5 cells = experiment: MTT cell viability assay on non-cancerous MRC-5 fibroblasts; format: cell-based; details: 72 hours, MTT
Experimental: (§1) HeLa, MCF-7 and MDA-MB-231 cells were obtained from Sigma-Aldrich and maintained as reported previously. MRC-5, PC-3, DU 145 cells were purchased from American Type Culture Collection (ATCC, Manassas, VA, USA). PC-3 and DU 145 were maintained in RPMI medium (Sigma-Aldrich) whereas MRC-5 cells were maintained in DMEM medium (Sigma-Aldrich). All media were complemented with 10% Fetal bovine serum (FBS, Sigma-Aldrich) 2 mM L-glutamine, 0.01% streptomycin and 0.005% ampicillin (Sigma-Aldrich). Cells were cultured under standard conditions in a 37 °C incubator containing 5% CO2 in 95% humidity.
(§2) Each test compound was dissolved in cell culture grade DMSO (Molar Chemicals, Halásztelek, Hungary) in a final concentration of […]. Antiproliferative action of the synthesized steroids was investigated by MTT assay. An amount of 5000 cells/well were seeded into 96 well plates. Twenty-four hours post seeding, all cell lines were treated with each compound in 10 and 30 μM concentrations for 72 hours. […] After 72 hours, cells were washed with PBS and incubated with culture medium containing 0.5 mg/mL MTT (3-(4, 5-dimethylthiazolyl-2)-2,5-diphenyltetrazolium bromide) reagent (SERVA, GmbH, Heidelberg, Germany) for an hour at 37 °C. Formazan crystals were solubilized in DMSO and extinction was measured at 570 nm using a Synergy HTX plate reader (BioTech-Hungary, Budapest, Hungary). MTT assays were performed at least three times using four independent biological replicates. Data were normalized to solvent controls and the graphical representation of the obtained data as well as the calculation of IC50 values were carried out by GraphPad Prism 7 software (GraphPad Software; San Diego, CA, USA).

PC-3 cells = experiment: MTT cell viability assay on PC-3 prostate cancer cells; format: cell-based, human; details: for antiproliferative potency against PC-3 prostate cancer cells compared to MRC-5 non-cancerous fibroblasts: primary screen
Experimental: as §1, §2

MDA-MB-231 cells = experiment: MTT cell viability assay on MDA-MB-231 breast cancer cells; format: cell-based, human; details: 72 hours
Experimental: as §1, §2

HeLa cells = experiment: MTT cell viability assay on HeLa cervical cancer cells; format: cell-based, human; details: 72 hours
Experimental: as §1, §2

MCF-7 cells = experiment: MTT cell viability assay on MCF-7 breast cancer cells; format: cell-based, human; details: 72 hours
Experimental: as §1, §2

DU 145 cells = experiment: MTT cell viability assay on DU 145 prostate cancer cells; format: cell-based, human; details: 72 hours
Experimental: as §1, §2

Structure (SMILES)	Mean values (%) of primary growth inhibitory screen (viability in %), MRC-5 (MRC-5 cells; 10 µM)	Mean values (%) of primary growth inhibitory screen (viability in %), MRC-5 (MRC-5 cells; 30 µM)	Mean values (%) of primary growth inhibitory screen (viability in %), PC-3 (PC-3 cells; 10 µM, 72 hours, MTT)	antiproliferative potency against PC-3 prostate cancer cells compared to MRC-5 non-cancerous fibroblasts (PC-3 cells; 10 µM)	Mean values (%) of primary growth inhibitory screen (viability in %), PC-3 (PC-3 cells; 30 µM, 72 hours, MTT)	Mean values (%) of primary growth inhibitory screen (viability in %), MDA-MB-231 (MDA-MB-231 cells; 10 µM)	Mean values (%) of primary growth inhibitory screen (viability in %), MDA-MB-231 (MDA-MB-231 cells; 30 µM)	Mean values (%) of primary growth inhibitory screen (viability in %), HeLa (HeLa cells; 10 µM)	Mean values (%) of primary growth inhibitory screen (viability in %), HeLa (HeLa cells; 30 µM)	Mean values (%) of primary growth inhibitory screen (viability in %), MCF-7 (MCF-7 cells; 10 µM)	Mean values (%) of primary growth inhibitory screen (viability in %), MCF-7 (MCF-7 cells; 30 µM)	Mean values (%) of primary growth inhibitory screen (viability in %), DU 145 (DU 145 cells; 10 µM)	Mean values (%) of primary growth inhibitory screen (viability in %), DU 145 (DU 145 cells; 30 µM)	IC50 (MRC-5 cells; ± SD)	IC50 (PC-3 cells; MTT, 72 hours, ± SD)	IC50 (MDA-MB-231 cells; ± SD)	IC50 (HeLa cells; ± SD)	IC50 (MCF-7 cells; ± SD)	IC50 (DU 145 cells; ± SD)	antiproliferative potency against PC-3 prostate cancer cells compared to MRC-5 non-cancerous fibroblasts (PC-3 cells; 30 µM)
Cc1ccccc1-n1nc2c(c1C)C[C@@]1(C)[C@@H](CC[C@@H]3[C@@H]1CC[C@]1(C)[C@@H](O)CC[C@@H]31)C2 [4b, 17β-Hydroxy-1′-(2″-tolyl)-5′-methylpyrazolo[3′,4′:3,2]-5α-androstane]	72.9%	64.2%	67.5%	significantly higher	54.7%	69.0%	64.0%	36.0%	34.1%	39.1%	32.4%	61.1%	48.3%							
Cc1ccc(-n2nc3c(c2C)CC2(C)C(CCC4C5CCC(O)C5(C)CCC42)C3)cc1 (stereo not drawn) [4c, 17β-Hydroxy-1′-(4″-tolyl)-5′-methylpyrazolo[3′,4′:3,2]-5α-androstane]	75.0%	37.5%	44.0%	significantly higher	4.2%	81.7%	12.0%	56.1%	8.0%	49.5%	5.4%	87.3%	5.1%							
Cc1ccc(-n2nc3c(c2C)C[C@@]2(C)[C@@H](CC[C@@H]4[C@@H]2CC[C@]2(C)[C@@H](O)CC[C@@H]42)C3)c(C)c1 [4d, 17β-Hydroxy-1′-(2″,4″-dimethylphenyl)-5′-methylpyrazolo[3′,4′:3,2]-5α-androstane]	78.9%	0.8%	53.4%		3.6%	92.0%	47.9%	65.6%	56.1%	74.5%	10.5%	70.2%	2.3%							
Cc1c2c(nn1-c1ccc(F)cc1)CC1CCC3C4CCC(O)C4(C)CCC3C1(C)C2 (stereo not drawn) [4f, 17β-Hydroxy-1′-(4″-fluorophenyl)-5′-methylpyrazolo[3′,4′:3,2]-5α-androstane]	68.7%	14.8%	41.8%		5.1%	83.4%	32.0%	46.1%	7.6%	57.1%	5.4%	71.6%	3.9%							
Cc1c2c(nn1-c1ccc(Cl)cc1)C[C@@H]1CC[C@@H]3[C@H](CC[C@]4(C)[C@@H](O)CC[C@@H]34)[C@@]1(C)C2 [4g, 17β-Hydroxy-1′-(4″-chlorophenyl)-5′-methylpyrazolo[3′,4′:3,2]-5α-androstane]	80.1%	1.1%	44.6%	significantly higher	3.0%	78.4%	5.3%	40.1%	4.7%	48.5%	5.3%	74.8%	1.4%	15.6 ± 1.4 µM	7.7 ± 1.2 µM	12.6 ± 1.5 µM	7.2 ± 0.4 µM	4.4 ± 0.3 µM	14.2 ± 1.3 µM	
Cc1c2c(nn1-c1ccc(Br)cc1)C[C@@H]1CC[C@@H]3[C@H](CC[C@]4(C)[C@@H](O)CC[C@@H]34)[C@@]1(C)C2 [4h, 17β-Hydroxy-1′-(4″-bromophenyl)-5′-methylpyrazolo[3′,4′:3,2]-5α-androstane]	92.8%	12.7%	61.6%		3.6%	69.4%	10.5%	38.2%	5.8%	54.1%	5.2%	95.1%	2.2%							
Cc1c2c(nn1-c1ccc(C#N)cc1)C[C@@H]1CC[C@@H]3[C@H](CC[C@]4(C)[C@@H](O)CC[C@@H]34)[C@@]1(C)C2 [4i, 17β-Hydroxy-1′-(4″-cyanophenyl)-5′-methylpyrazolo[3′,4′:3,2]-5α-androstane]	100.3%	97.4%	56.6%	significantly higher	53.3%	93.0%	89.1%	62.9%	72.5%	53.6%	50.4%	104.9%	105.7%							significantly higher
